Source: PubChem BioAssay (NCI)
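Tested at 5 concentrations; 48 h exposure; 96-well plates; endpoints linearly interpolated, else capped at highest concentration. Here, GI50 denotes the concentration required for 50% inhibition of growth. TGI is the concentration that stops growth completely.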

How the values were obtained:
Assay in all cases: NCI anticancer screen, dose series, 48 h
COLO 205 colon = test system: COLO 205 colon
NCI-H23 lung = test system: NCI-H23 lung
MDA-MB-435 = test system: MDA-MB-435
UACC-62 melanoma = test system: UACC-62 melanoma
BT-549 breast = test system: BT-549 breast
HCT-116 colon = test system: HCT-116 colon
M14 melanoma = test system: M14 melanoma
SK-OV-3 ovarian = test system: SK-OV-3 ovarian
DU-145 prostate = test system: DU-145 prostate
LOX IMVI melanoma = test system: LOX IMVI melanoma

SMILES	TGI (COLO 205 colon) [µM]	TGI (NCI-H23 lung) [µM]	TGI (MDA-MB-435) [µM]	TGI (UACC-62 melanoma) [µM]	TGI (BT-549 breast) [µM]	TGI (HCT-116 colon) [µM]	TGI (M14 melanoma) [µM]	TGI (SK-OV-3 ovarian) [µM]	TGI (DU-145 prostate) [µM]	TGI (LOX IMVI melanoma) [µM]	GI50 (COLO 205 colon) [µM]	GI50 (MDA-MB-435) [µM]	GI50 (UACC-62 melanoma) [µM]	GI50 (BT-549 breast) [µM]	GI50 (HCT-116 colon) [µM]	GI50 (DU-145 prostate) [µM]	GI50 (LOX IMVI melanoma) [µM]	GI50 (NCI-H23 lung) [µM]	GI50 (M14 melanoma) [µM]	GI50 (SK-OV-3 ovarian) [µM]
O=C1C[C@H](c2ccccc2)C2(C(=O)c3ccccc3C2=O)[C@H](c2ccccc2)C1	> 100	> 100	> 100	> 100	> 100	> 100	> 100	> 100	> 100											
O=C1/C(=C/c2ccco2)NC(=S)N1CN1CCOCC1	> 100	> 100	> 100	> 100		> 100	> 100	> 100	> 100	> 100										
COc1cc(C2S/C(=C/c3ccccc3)C(=O)N2c2cccc([N+](=O)[O-])c2)cc(OC)c1OC (configuration not stated)	> 100	> 100	41.2	> 100	> 100	> 100	> 100	> 100		> 100										
Clc1ncnc2c1ncn2CCCCCCCCCCCCn1cnc2c(Cl)ncnc21	29.1	10.8		26.9		24.8	29.6	33.3		7.19										
CC(C)CCC[C@@H](C)[C@H]1CCC2C3=CCC4C(=O)C=CC(=O)C4C3CC[C@@]21C (some centres not stated)	0.183		1.15	> 100	1.72	1.03			> 100	1.17	0.0545	0.254	0.542	0.306	0.0551	0.507	0.227			
O=C(Nc1cccc(-n2ccc3c(NC(=O)c4ccccc4)nccc32)c1)c1cc(N2CCOCC2)cc(C(F)(F)F)c1	0.472	> 100	0.0688	> 44.2		> 29.8		> 100		> 100	0.157	0.0253	0.0511		0.0347	0.164	0.0912	0.613	0.125	0.142
Cc1cccc2c1C/C(=C\c1cccc(C)c1C(=O)O)C2=O	> 100	> 100	> 100	> 100	> 100	> 100	> 100		> 100	> 100										
Cc1cc([N+](=O)[O-])ccc1N=NC(=O)NNc1ccc([N+](=O)[O-])cc1C		41.8	28.4	26.3	28.3	28.2	28.3		30.1	29.8										
CC(C)(NC1=NCCO1)c1ccccc1	> 100	> 100	> 100	> 100		> 100	> 100	> 100	> 100	> 100										
OCC(O)C(O)C(O)C(/C=N\Nc1ncnc2ccc(Br)cc12)=N/Nc1ncnc2ccc(Br)cc12 (configuration not stated)	> 100		> 100			> 100	71.2	> 100	> 100	> 100										
